# Reference: patent US5134150A, “Inhibition of the 5-lipoxygenase pathway” (priority 1989, dated 1992)
# Read-outs that look alike come from different tables or passages of the source.
# What was measured:
# [1] = test system: Arachidonic Acid-Induced Inflammation of the Mouse Ear; test: Arachidonic acid-induced mouse ear inflammation; format: in vivo, mouse (male Balb/c); conditions: for inhibition in vivo at 50 mg/kg: Mus musculus, 1 h, Table 7A, read-out: % Inhibition of Ear Swelling
# Description: (§1) In the following Examples where mice were used, they were male Balb/c mice (20-28 g), and where rats were used, they were male Lewis rats (180-210 g). All mice and rats were obtained from Charles River Breeding Laboratories, Kingston, N.Y. Within a single experiment, mice and rats were sex and age matched.
# (§2) The compounds of Formula (I) were used either as the free base or in the appropriate salt form. Levamisole was used as the hydrochloride salt. The compounds were homogenized in 0.5% tragacanth. Compounds were administered by gavage at the indicated dose in a final volume of 10 ml/kg. Nordihydroguaiaretic acid (NDGA) was solubilized in dimethylacetamide and diluted with olive oil for subcutaneous administration.
# Arachidonic acid in acetone ([…]) was applied to the inner surface of the left ear. The thickness of both ears was then measured with a dial micrometer one hour after treatment, and the data were expressed as the change in thickness (10^-3 cm) between treated and untreated ears.
# Test compounds were given orally in 0.5% tragacanth at the times indicated in the text prior to the topical application of arachidonic acid.
# Parenteral administration of compound was accomplished by subcutaneous injection of solution as indicated.
# [2] = test system: 5-lipoxygenase and LTA4 synthetase; test: Di-HETE / LTB4 production by high speed supernatant of RBL-1 cells; format: biochemical; conditions: RBL-1 high speed supernatant; Table 9A; read-out: 5-LO IC50 (LTB4 production)
# Procedure: For in vitro experiments, compounds were dissolved at appropriate concentrations in ethanol or DMSO (dimethylsulfoxide) (final concentration≤1.0%) and then diluted to final concentrations using the buffers indicated in the text.
# The activities of these enzymes in extracts of RBL-1 cells were assayed using the method of Jakschik and Lee, Nature, 287, 51-52 (1980). RBL-1 cells were obtained from the American Type Culture Collection (#CRL 1378) and were grown at 37° C. (5% CO2 in air) in spinner culture in MEM supplemented with 10% heat inactivated fetal calf serum. Harvested cells were washed with 50 mM sodium phosphate buffer, pH 7.0, containing 1 mM EDTA and 0.1% gelatin, resuspended in fresh buffer (5×10^7 cells/ml) and disrupted by nitrogen cavitation using the Parr bomb at 750 psi for 10 min. The broken cell extract was then centrifuged at 10,000× g for 20 minutes (min) and the supernatant centrifuged at 100,000 xIg for 60 min. Aliquots (0.25 mls) of the supernatant were preincubated with or without drugs for 10 min, after which 10 μl CaCl2 (50 mM) was added and the reaction was initiated with 2.5 μl of 2.5 mM arachidonic acid-1-^14 C (final concentration was 25 μM; specific activity 20,000 dpm/nmole). After incubation for 3 min at 37° C., the reaction was terminated by addition of 2 volumes (0.5 ml) ice cold acetone and the sample was allowed to deproteinize on ice for 10 min prior to centrifugation at 1,000× g for 10 min. The deproteinized supernatant was adjusted to pH 3.5 with 2N formic acid and extracted with 2 volumes of ice cold ethyl acetate. The extracted samples were dried under argon, redissolved in ethyl acetate and applied to Whatman LK5D thin layer chromatography (TLC) plates which were developed using the A-9 solvent system [organic phase of ethyl acetate: 2,2,5-trimethylpentane:acetic acid: water (110:50:20:10)] described by Hamberg and Samuelsson, J. Biol. Chem., 241, 257-263 (1966). Arachidonic acid, 5-HETE, LTB4 and PGD2 were quantified with a Berthold LB 2832 autoscanner.
# The 5-lipoxygenase and LTA4 synthetase activities were further studied under the following conditions. An additional centrifugation of the RBL-1 supernatant was run at 100,000× g for 60 min, to remove the particulate cyclooxygenase activity. Sample incubation was done under conditions similar to those described above, i.e., 2 mM CaCl2 and […] arachidonic acid-1-^14 C, however, with an incubation time of 5 min at 5° C. Under these conditions, only the 5-lipoxygenase pathway metabolites were detectable. The 5-HETE and di-HETEs were formed at a linear rate, and substantial amounts of the arachidonic acid-1-^14 C substrate were utilized.
# [3] = test system: Infiltration of Polymorphonuclear Leukocytes into Sites of Carrageenan-Induced Inflammation; test: Mouse carrageenan peritonitis (PMN infiltration); format: in vivo, mouse (male Balb/c); conditions: for PMN infiltration, result in words: carrageenan peritonitis, mice
# Description: as §1, §2
# Mice were pretreated with either the test compound or vehicle one hour before the intraperitoneal injection of a 1.0% carrageenan suspension in saline (0.2 ml/mouse). Mice were sacrificed by cervical dislocation two hours after injection, and 3.0 ml of phosphate buffered saline, without Ca^++ or Mg^++, was injected into the peritoneum. Following massage, a 2.0 ml aliquot of the lavage fluid was removed, and the total cell count determined on a Coulter counter and differential cell count determined by microscopic examination of Giesma-stained slides.
# [4] = test system: LTB4 synthesis by peritoneal exudate cells; test: Ex vivo production of LTB4 from peritoneal exudate cells of drug-treated mice; format: in vivo, mouse; conditions: for inhibition at 50 mg/kg: Mus musculus, po, 50 mg/kg p.o.
# Description: In the following Examples where mice were used, they were male Balb/c mice (20-28 g), and where rats were used, they were male Lewis rats (180-210 g). All mice and rats were obtained from Charles River Breeding Laboratories, Kingston, N.Y. Within a single experiment, mice and rats were sex and age matched. Auranofin, phenidone, indomethacin, naproxen, and ibuprofen were each used as the free base. The compounds of Formula (I) were used either as the free base or in the appropriate salt form. Levamisole was used as the hydrochloride salt. […] Nordihydroguaiaretic acid (NDGA) was solubilized in dimethylacetamide and diluted with olive oil for subcutaneous administration. Carrageenan-induced peritoneal exudate cells from normal or drug-treated mice were washed and suspended in 2.2 ml of phosphate buffered saline. […] The cell preparation was centrifuged at 1500 rpm for 10 min and the supernatant was extracted using a C-18 silica column. […] A tetrahydrofuran, methanol, water, acetic acid (25:30:45: 0.1) solvent system, adjusted to pH 5.5 with ammonium hydroxide, was used at a flow rate of 0.7 ml/min. Cell derived LTB4 was quantified utilizing standard curves constructed with known amounts of synthetic LTB4.
SMILES,IC50 [2],inhibition in vivo at 50 mg/kg ([1]; 50 mg/kg s.c. or i.p.),other results
CC(=O)OC[C@H]1O[C@@H]([S-])[C@H](OC(C)=O)[C@@H](OC(C)=O)[C@@H]1OC(C)=O.CCP(CC)CC.[Au+] [Auranofin],–,–,"% Change (PMN) ([3]; 2 mg Au/kg, p.o., Table 3): -6%; PMN (Mean ± S.D.) ([3]; 2 mg Au/kg, p.o., Table 3): 7.50 ± 1.57 × 10^-5 /ml; PMN infiltration, result in words [3]: did not impair inflammatory cell infiltration"
"CC(=O)Nc1ccc(-c2nc3n(c2-c2ccncc2)CCS3)cc1 [Compound 38, 5-(4-pyridyl)-6-(4-acetamidophenyl)-2,3-dihydroimidazo (2,1-b)thiazole]",30 µM,–,–
"c1cc(-c2nc3n(c2-c2ccncc2)CCS3)ccn1 [Compound 11, 5,6-Bis(4-pyridyl)-2,3-dihydroimidazo(2,1-b) thiazole]",33 µM,29%,–
COc1ccc2cc([C@H](C)C(=O)O)ccc2c1 [Naproxen],–,–,"inhibition at 50 mg/kg ([4]; Experiment 1): 0%; inhibition at 50 mg/kg ([4]; Experiment 2): 15%; inhibition at 50 mg/kg ([4]; Experiment 3): 0%; LTB4 production ex vivo, result in words ([4]; mouse, in vivo): inactive"
O=S1(=O)CCn2c1nc(-c1ccc(F)cc1)c2-c1ccc(F)cc1 [Compound 31],< 33 µM,–,–
[O-][S+]1CCn2c1nc(-c1ccc(F)cc1)c2-c1ccc(F)cc1 (stereo not shown) [Compound 30],60 µM,–,–
"Fc1ccc(-c2nc3n(c2-c2ccccn2)CCS3)cc1 [Compound 23, 5-(2-pyridinyl)-6-(4-fluorophenyl)-2,3-dihydroimidazo[2,1-b]thiazole]",42 µM,65%,–
COc1ccc(-c2nc3n(c2-c2ccc(OC)cc2)CCC3)cc1 [Compound 22],–,15%,–
"CC(Cc1ccc(O)c(O)c1)C(C)Cc1ccc(O)c(O)c1 (stereo not shown) [NDGA, Nordihydroguaiaretic acid]",–,–,"PMN infiltration, result in words [3]: effective"
c1ccc([C@H]2CN3CCSC3=N2)cc1 [Levamisole],–,–,"PMN infiltration, result in words [3]: did not impair inflammatory cell infiltration"
"CC(C)Cc1ccc(C(C)C(=O)O)cc1 (stereo not shown) [Ibuprofen, reference compound]",–,–,"Mouse ear edema, result in words ([1]; mouse, in vivo): did not exhibit detectable anti-inflammatory activity"
CSc1ccc(-c2nc3n(c2-c2ccc(SC)cc2)CCS3)cc1 [Compound 32],> 100 µM,–,–

# Further lines, with some results ahead:
IC50 [2],SMILES,inhibition in vivo at 50 mg/kg ([1]; 50 mg/kg s.c. or i.p.),other results
0.6 µM,COc1ccc(-c2nc3n(c2-c2ccc(F)cc2)CCS3)cc1 [Compound 14],64%,–
0.6 µM,"CN(C)c1ccc(-c2nc3n(c2-c2ccc(F)cc2)CCS3)cc1 [Compound 6, 6-(4-dimethylaminophenyl)-5-(4-fluorophenyl)-2,3-dihydroimidazo[2,1-b]thiazole]",48%,–
5 µM,Fc1ccc(-c2nc3n(c2-c2ccc(F)cc2)CCS3)cc1 [Compound 19],–,"inhibition in vivo at 50 mg/kg ([1]; po, 50 mg/kg p.o.): 34%"
20 µM,"Fc1ccc(-c2c(-c3ccccn3)nc3n2CCS3)cc1 [Compound 24, 5-(4-fluorophenyl)-6-(2-pyridinyl)-2,3-dihydroimidazo[2,1-b]thiazole]",69%,–
7 µM,"CCCNc1ccc(-c2nc3n(c2-c2ccncc2)CCS3)cc1 [Compound 2, 6-(4-(1-propylamino)phenyl)-5-(4-pyridyl)-2,3-dihydroimidazo[2,1-b]thiazole]",23%,–
10 µM,"c1cc(-c2nc3n(c2-c2ccc4c(c2)OCO4)CCS3)ccn1 [Compound 7, 6-(4-pyridyl)-5-(3,4-methylenedioxyphenyl)-2,3-dihydroimidazo [2,1-b]thiazole]",62%,–
15 µM,"N#Cc1ccc(-c2nc3n(c2-c2ccc(C#N)cc2)CCS3)cc1 [Compound 13, 5,6-bis(4-cyanophenyl)-2,3-dihydroimidazo[2,1-b]thiazole]",50%,–
0.1 µM,"c1cc(N2CCCC2)ccc1-c1nc2n(c1-c1ccc(N3CCCC3)cc1)CCS2 [Compound 3, 5,6-bis(4-(1-pyrrolidinyl)phenyl)-2,3-dihydroimidazo[2,1-b] thiazole]",44%,–
10 µM,c1cc(-c2c(-c3ccc4c(c3)OCO4)nc3n2CCS3)ccn1 [Compound 5],–,–
10 µM,FC(F)(F)c1ccc(-c2nc3n(c2-c2ccc(C(F)(F)F)cc2)CCS3)cc1 [Compound 15],–,–
2.8 µM,COc1ccc(-c2nc3n(c2-c2ccc(OC)cc2)CCS3)cc1 [Compound 21],–,–
0.6 µM,"c1cc(N2CCCCC2)ccc1-c1nc2n(c1-c1ccc(N3CCCCC3)cc1)CCS2 [Compound 4, 5,6-bis(4-(1-piperidinyl)phenyl)-2,3-dihydroimidazo[2,1-b] thiazole]",22%,–
0.5 µM,"c1cc(-c2c(-c3ccc(N4CCCC4)cc3)nc3n2CCS3)ccn1 [Compound 25, 5-(4-pyridyl)-6-(4-(pyrrolidin-1-yl)-phenyl)-2,3-dihydroimidazo[2,1-b]thiazole]",–,"inhibition in vivo at 50 mg/kg ([1]; po, 50 mg/kg p.o.): 17%"
1.5 µM,"CN(C)c1ccc(-c2c(-c3ccc(F)cc3)nc3n2CCS3)cc1 [Compound 10, 5-(4-Dimethylaminophenyl)-6-(4-fluorophenyl)-2,3-dihydroimidazo[2,1-b]-thiazole]",7%,–
5.6 µM,COc1ccc(-c2nc3n(c2-c2ccc(OC)cc2)CCCS3)cc1 [Compound 20],47%,–
1.5 µM,c1cc2c(cc1-c1nc3n(c1-c1ccc4c(c1)OCO4)CCS3)OCO2 [Compound 16],–,"inhibition in vivo at 50 mg/kg ([1]; po, 50 mg/kg p.o.): 32%"
8 µM,Fc1ccc(-c2nc3n(c2-c2ccc(F)cc2)CCC3)cc1 [Compound 8],–,"inhibition in vivo at 50 mg/kg ([1]; po, 50 mg/kg p.o.): 40%"
0.16 µM,"CCN(CC)c1ccc(-c2nc3n(c2-c2ccc(N(CC)CC)cc2)CCS3)cc1 [Compound 9, 5,6-bis(4-N,N-diethylaminophenyl)-2,3-dihydroimidazo [2,1-b]thiazole]",–,"inhibition in vivo at 50 mg/kg ([1]; po, 50 mg/kg p.o.): 17%"
